In patent US4396613A, “23-Ester derivatives of DMT and method of using same” (Eli Lilly and Company, priority 1981, dated 1983):
≈ marks a conversion by molar mass, not a printed value.

Key:
Assay type in all cases: cell-based
[1] = test system: Staphylococcus aureus V41; experiment: standard agar-dilution assay (MIC); settings: Staphylococcus aureus V41, penicillin-resistant strain, unit assumed
Procedure: (§1) The MIC's in Table II were determined by standard agar-dilution assays. The MIC's in Table III were obtained using a conventional broth-dilution microtiter test.
^b Penicillinresistant strain

[2] = test system: Staphylococcus aureus X400; experiment: standard agar-dilution assay (MIC); settings: Staphylococcus aureus X400, methicillin-resistant strain, unit assumed
Procedure: as §1
^c Methicillinresistant-strain

[3] = test system: Haemophilus influenzae Holt; experiment: standard agar-dilution assay (MIC); settings: ampicillin-sensitive strain, unit assumed
Procedure: as §1

[4] = test system: Haemophilus influenzae R252; experiment: standard agar-dilution assay (MIC); settings: Haemophilus influenzae R252, ampicillin-resistant strain, unit assumed
Procedure: as §1

[5] = test system: Staphylococcus aureus S13E; experiment: standard agar-dilution assay (MIC); settings: unit assumed
Procedure: as §1

[6] = test system: Staphylococcus aureus X1.1; experiment: standard agar-dilution assay (MIC); settings: unit assumed
Procedure: as §1

[7] = test system: Staphylococcus epidermidis EPI1; experiment: standard agar-dilution assay (MIC); settings: unit assumed
Procedure: as §1

[8] = test system: Staphylococcus epidermidis EPI2; experiment: standard agar-dilution assay (MIC); settings: unit assumed
Procedure: as §1

[9] = test system: Streptococcus Group 9960; experiment: standard agar-dilution assay (MIC); settings: unit assumed
Procedure: as §1

[10] = test system: Streptococcus Group D X66; experiment: standard agar-dilution assay (MIC); settings: unit assumed
Procedure: as §1

[11] = test system: Streptococcus pyogenes C203; experiment: standard agar-dilution assay (MIC); settings: unit assumed
Procedure: as §1

[12] = test system: Streptococcus pneumoniae Park I; settings: agar dilution, unit assumed
Procedure: as §1

[13] = test system: Mycoplasma gallisepticum; experiment: conventional broth-dilution microtiter test (MIC); settings: unit assumed
Procedure: as §1

[14] = test system: Mycoplasma hyorhinis; experiment: conventional broth-dilution microtiter test (MIC); settings: unit assumed
Procedure: as §1

[15] = test system: Pasteurella multocida 17E; experiment: conventional broth-dilution microtiter test (MIC); settings: bovine isolate, unit assumed
Procedure: as §1

[16] = test system: Pasteurella multocida 60A; experiment: conventional broth-dilution microtiter test (MIC); settings: avian isolate, unit assumed
Procedure: as §1

[17] = test system: Staphylococcus aureus; experiment: conventional broth-dilution microtiter test (MIC); settings: unit assumed
Procedure: as §1

[18] = test system: Streptococcus sp. 80; experiment: conventional broth-dilution microtiter test (MIC); settings: unit assumed
Procedure: as §1

[19] = test system: Mycoplasma synoviae; experiment: conventional broth-dilution microtiter test (MIC); settings: unit assumed
Procedure: as §1

Structure (SMILES): CCC1OC(=O)CC(O)C(C)C(OC2OC(C)C(OC3CC(C)(O)C(O)C(C)O3)C(N(C)C)C2OC(C)=O)C(CC=O)CC(C)C(=O)C=CC(C)=CC1COC(=O)CCc1ccccc1 (stereo not shown) [Compound 13]
- MIC [1]: 1 µg/mL (≈ 1.09 µM)
- MIC [2]: 1 µg/mL (≈ 1.09 µM)
- MIC [3]: 2 µg/mL (≈ 2.18 µM)
- MIC [4]: 2 µg/mL (≈ 2.18 µM)
- MIC [5]: 0.5 µg/mL (≈ 0.546 µM)
- MIC [6]: 0.25 µg/mL (≈ 0.273 µM)
- MIC [7]: 1 µg/mL (≈ 1.09 µM)
- MIC [8]: 1 µg/mL (≈ 1.09 µM)
- MIC [9]: 0.5 µg/mL (≈ 0.546 µM)
- MIC [10]: 0.5 µg/mL (≈ 0.546 µM)
- MIC [11]: 0.25 µg/mL (≈ 0.273 µM)
- MIC [12]: 0.015 µg/mL (≈ 0.0164 µM)
- MIC [13]: ≤ 0.048 µg/mL
- MIC [14]: 3.12 µg/mL (≈ 3.41 µM)
- MIC [15]: 1.56 µg/mL (≈ 1.7 µM)
- MIC [16]: 12.5 µg/mL (≈ 13.6 µM)
- MIC [17]: 0.78 µg/mL (≈ 0.851 µM)
- MIC [18]: ≤ 0.048 µg/mL

Structure (SMILES): CCC1OC(=O)CC(O)C(C)C(OC2OC(C)C(OC3CC(C)(O)C(O)C(C)O3)C(N(C)C)C2OC(C)=O)C(CC=O)CC(C)C(=O)C=CC(C)=CC1COC(=O)Cc1ccc(Cl)cc1 (stereo not shown) [Compound 14, 2'-O-Acetyl-23-O-(p-chlorophenylacetyl)-DMT]
- MIC [1]: 2 µg/mL (≈ 2.14 µM)
- MIC [2]: 2 µg/mL (≈ 2.14 µM)
- MIC [3]: 4 µg/mL (≈ 4.27 µM)
- MIC [4]: 4 µg/mL (≈ 4.27 µM)
- MIC [5]: 1 µg/mL (≈ 1.07 µM)
- MIC [6]: 0.5 µg/mL (≈ 0.534 µM)
- MIC [7]: 1 µg/mL (≈ 1.07 µM)
- MIC [8]: 2 µg/mL (≈ 2.14 µM)
- MIC [9]: 1 µg/mL (≈ 1.07 µM)
- MIC [10]: 1 µg/mL (≈ 1.07 µM)
- MIC [11]: 0.5 µg/mL (≈ 0.534 µM)
- MIC [13]: < 0.048 µg/mL
- MIC [14]: 6.25 µg/mL (≈ 6.67 µM)
- MIC [19]: 0.78 µg/mL (≈ 0.833 µM)
- MIC [15]: 3.12 µg/mL (≈ 3.33 µM)
- MIC [16]: 6.25 µg/mL (≈ 6.67 µM)
- MIC [17]: 0.39 µg/mL (≈ 0.416 µM)
- MIC [18]: 0.78 µg/mL (≈ 0.833 µM)

Structure (SMILES): CCC1OC(=O)CC(O)C(C)C(OC2OC(C)C(OC3CC(C)(O)C(O)C(C)O3)C(N(C)C)C2OC(C)=O)C(CC=O)CC(C)C(=O)C=CC(C)=CC1COC(=O)Cc1ccc([N+](=O)[O-])cc1 (stereo not shown) [Compound 15, 2'-O-Acetyl-23-O-(p-nitrophenylacetyl)-DMT]
- MIC [1]: 0.5 µg/mL (≈ 0.528 µM)
- MIC [2]: 0.5 µg/mL (≈ 0.528 µM)
- MIC [3]: 8 µg/mL (≈ 8.45 µM)
- MIC [4]: 4 µg/mL (≈ 4.22 µM)
- MIC [5]: 0.25 µg/mL (≈ 0.264 µM)
- MIC [6]: 0.25 µg/mL (≈ 0.264 µM)
- MIC [7]: 0.5 µg/mL (≈ 0.528 µM)
- MIC [8]: 0.5 µg/mL (≈ 0.528 µM)
- MIC [9]: 0.25 µg/mL (≈ 0.264 µM)
- MIC [10]: 0.25 µg/mL (≈ 0.264 µM)
- MIC [11]: 0.125 µg/mL (≈ 0.132 µM)
- MIC [13]: 0.39 µg/mL (≈ 0.412 µM)
- MIC [14]: 0.78 µg/mL (≈ 0.824 µM)
- MIC [19]: < 0.05 µg/mL
- MIC [15]: 3.12 µg/mL (≈ 3.29 µM)
- MIC [16]: 6.25 µg/mL (≈ 6.6 µM)
- MIC [17]: 1.56 µg/mL (≈ 1.65 µM)
- MIC [18]: 0.39 µg/mL (≈ 0.412 µM)

Structure (SMILES): CCC1OC(=O)CC(O)C(C)C(OC2OC(C)C(OC3CC(C)(O)C(O)C(C)O3)C(N(C)C)C2OC(C)=O)C(CC=O)CC(C)C(=O)C=CC(C)=CC1COC(=O)C(Cl)(Cl)Cl (stereo not shown) [Compound 16]
- MIC [1]: 2 µg/mL (≈ 2.15 µM)
- MIC [2]: 4 µg/mL (≈ 4.3 µM)
- MIC [3]: 2 µg/mL (≈ 2.15 µM)
- MIC [4]: 2 µg/mL (≈ 2.15 µM)
- MIC [5]: 1 µg/mL (≈ 1.08 µM)
- MIC [6]: 1 µg/mL (≈ 1.08 µM)
- MIC [7]: 1 µg/mL (≈ 1.08 µM)
- MIC [8]: 4 µg/mL (≈ 4.3 µM)
- MIC [9]: 1 µg/mL (≈ 1.08 µM)
- MIC [10]: 1 µg/mL (≈ 1.08 µM)
- MIC [11]: 0.5 µg/mL (≈ 0.538 µM)
- MIC [12]: 0.03 µg/mL (≈ 0.0323 µM)
- MIC [13]: 0.39 µg/mL (≈ 0.42 µM)
- MIC [14]: 3.12 µg/mL (≈ 3.36 µM)
- MIC [15]: 6.25 µg/mL (≈ 6.73 µM)
- MIC [16]: 12.5 µg/mL (≈ 13.5 µM)
- MIC [17]: 1.56 µg/mL (≈ 1.68 µM)
- MIC [18]: 0.39 µg/mL (≈ 0.42 µM)

Structure (SMILES): CCC1OC(=O)CC(O)C(C)C(OC2OC(C)C(OC3CC(C)(O)C(O)C(C)O3)C(N(C)C)C2O)C(CC=O)CC(C)C(=O)C=CC(C)=CC1COC(=O)n1ccnc1 (stereo not shown) [Compound 22]
- MIC [1]: 1 µg/mL (≈ 1.2 µM)
- MIC [2]: 1 µg/mL (≈ 1.2 µM)
- MIC [3]: 16 µg/mL (≈ 19.1 µM)
- MIC [4]: 8 µg/mL (≈ 9.57 µM)
- MIC [5]: 0.5 µg/mL (≈ 0.598 µM)
- MIC [6]: 0.5 µg/mL (≈ 0.598 µM)
- MIC [7]: 0.5 µg/mL (≈ 0.598 µM)
- MIC [8]: 0.5 µg/mL (≈ 0.598 µM)
- MIC [9]: 0.5 µg/mL (≈ 0.598 µM)
- MIC [10]: 1 µg/mL (≈ 1.2 µM)
- MIC [11]: 0.25 µg/mL (≈ 0.299 µM)
- MIC [13]: 3.12 µg/mL (≈ 3.73 µM)
- MIC [14]: 1.56 µg/mL (≈ 1.87 µM)
- MIC [19]: 1.56 µg/mL (≈ 1.87 µM)
- MIC [15]: 12.5 µg/mL (≈ 15 µM)
- MIC [16]: 25 µg/mL (≈ 29.9 µM)
- MIC [17]: 6.25 µg/mL (≈ 7.48 µM)
- MIC [18]: 1.56 µg/mL (≈ 1.87 µM)

Structure (SMILES): CCC1OC(=O)CC(O)C(C)C(OC2OC(C)C(OC3CC(C)(O)C(O)C(C)O3)C(N(C)C)C2O)C(CC=O)CC(C)C(=O)C=CC(C)=CC1COC(=O)NCCCO (stereo not shown) [Compound 26]
- MIC [1]: 2 µg/mL (≈ 2.37 µM)
- MIC [2]: 4 µg/mL (≈ 4.74 µM)
- MIC [3]: 16 µg/mL (≈ 19 µM)
- MIC [5]: 4 µg/mL (≈ 4.74 µM)
- MIC [6]: 1 µg/mL (≈ 1.19 µM)
- MIC [7]: 1 µg/mL (≈ 1.19 µM)
- MIC [8]: 2 µg/mL (≈ 2.37 µM)
- MIC [9]: 2 µg/mL (≈ 2.37 µM)
- MIC [10]: 2 µg/mL (≈ 2.37 µM)
- MIC [11]: 0.25 µg/mL (≈ 0.297 µM)
- MIC [12]: 0.125 µg/mL (≈ 0.148 µM)
- MIC [13]: 0.78 µg/mL (≈ 0.925 µM)
- MIC [14]: 6.25 µg/mL (≈ 7.41 µM)
- MIC [19]: 0.39 µg/mL (≈ 0.463 µM)
- MIC [15]: 6.25 µg/mL (≈ 7.41 µM)
- MIC [16]: 12.5 µg/mL (≈ 14.8 µM)
- MIC [17]: 1.56 µg/mL (≈ 1.85 µM)
- MIC [18]: 0.39 µg/mL (≈ 0.463 µM)

Structure (SMILES): CCC1OC(=O)CC(O)C(C)C(OC2OC(C)C(OC3CC(C)(O)C(O)C(C)O3)C(N(C)C)C2OC(C)=O)C(CC=O)CC(C)C(=O)C=CC(C)=CC1COC(=O)NCc1ccccc1 (stereo not shown) [Compound 30]
- MIC [1]: 1 µg/mL (≈ 1.09 µM)
- MIC [2]: 0.5 µg/mL (≈ 0.545 µM)
- MIC [3]: 8 µg/mL (≈ 8.72 µM)
- MIC [4]: 4 µg/mL (≈ 4.36 µM)
- MIC [5]: 0.5 µg/mL (≈ 0.545 µM)
- MIC [6]: 0.5 µg/mL (≈ 0.545 µM)
- MIC [7]: 0.5 µg/mL (≈ 0.545 µM)
- MIC [8]: 0.5 µg/mL (≈ 0.545 µM)
- MIC [9]: 0.5 µg/mL (≈ 0.545 µM)
- MIC [10]: 0.5 µg/mL (≈ 0.545 µM)
- MIC [11]: 0.5 µg/mL (≈ 0.545 µM)
- MIC [13]: 0.39 µg/mL (≈ 0.425 µM)
- MIC [14]: 1.56 µg/mL (≈ 1.7 µM)
- MIC [19]: 0.78 µg/mL (≈ 0.851 µM)
- MIC [16]: 12.5 µg/mL (≈ 13.6 µM)
- MIC [18]: 0.78 µg/mL (≈ 0.851 µM)
